Patent US20250186442A1, “Obicetrapib and Ezetimibe Combination Treatment and Fixed Dose Pharmaceutical Compositions” (NewAmsterdam Pharma B.V., priority 2022, published 2025)

Experiments:
P-glycoprotein = biological target: T1, P-glycoprotein (Homo sapiens, UniProt P08183); details: TA-8995-05; cited from earlier work
T1 construct: endogenous in cells; host or cells: study subjects in vivo (clinical study)

HDL-C = details: TA-8995-03; 10 mg daily dose, mild dyslipidemia; cited from earlier work
LDL-C [1] = assay: ROSE2 phase 2b clinical trial - LDL-C; format: in vivo, human; details: for LDL-C Change from Baseline to Day 28, Mean / LDL-C Change from Baseline to Day 28, Median / LDL-C Change from Baseline to Day 84, Mean / LDL-C Change from Baseline to Day 84, Median / LDL-C Day 28, Mean / LDL-C Day 28, Median / LDL-C Day 84, Mean / LDL-C Day 84, Median / LDL-C Percent Change from Baseline to Day 28 (%), Mean / LDL-C Percent Change from Baseline to Day 28 (%), Median / LDL-C Percent Change from Baseline to Day 84 (%), Mean / LDL-C Percent Change from Baseline to Day 84 (%), Median: obicetrapib 10 mg, ezetimibe 10 mg
Procedure: The primary objective of this study is to evaluate the effect of obicetrapib 10 mg+ezetimibe 10 mg combination therapy compared with placebo, when used as an adjunct to high-intensity statin therapy, on LDL-C at Day 84.
The secondary objectives of this study include the following, in hierarchical order: • To evaluate the effect of obicetrapib 10 mg monotherapy compared with placebo, when used as an adjunct to high-intensity statin therapy, on LDL-C at Day 84; • To evaluate the effect of obicetrapib 10 mg+ezetimibe 10 mg combination therapy compared with placebo, when used as an adjunct to high-intensity statin therapy, on ApoB at Day 84; and • To evaluate the effect of obicetrapib 10 mg monotherapy compared with placebo, when used as an adjunct to high-intensity statin therapy, on ApoB at Day 84.
This study will be a placebo-controlled, double-blind, randomized, Phase 2 study to evaluate the efficacy, safety, and tolerability of obicetrapib 10 mg, both in combination with ezetimibe 10 mg and as monotherapy, as an adjunct to high-intensity statin therapy. This study will take place at approximately 20 sites in the United States.
Up to 2 weeks after the Screening Visit, participants will return to the site on Day 1 (Visit 2) and confirm study eligibility before being randomized and beginning treatment. Approximately 114 eligible participants (38 participants per treatment group) will be randomized in a 1:1:1 ratio to 1 of the following treatment groups: • Combination therapy: Obicetrapib 10 mg+ezetimibe 10 mg (administered as one 10 mg obicetrapib tablet and one 10 mg ezetimibe capsule); • Obicetrapib monotherapy: Obicetrapib 10 mg (administered as one 10 mg obicetrapib tablet and 1 placebo capsule); or • Placebo (administered as 1 placebo tablet and 1 placebo capsule).
During the 12-week Treatment Period, the assigned study drugs will be administered by the participants orally with water, once daily on Day 1 to Day 84 at approximately the same time each morning. Participants will return to the site on Day 28 (+2 days), Day 84 (+2 days), and Day 112 (+2 days) for efficacy, safety, and pharmacokinetic (PK) assessments. Participants, Investigators, the Clinical Research Organization (CRO), and the Sponsor will be blinded to all lipid results from Day 1 (Visit 2) for the first participant until all enrolled participants complete the Day 84 (End of Treatment) visit or are withdrawn from the study, in order to protect blinding to treatment assignment.
The primary efficacy endpoint is the percent change from Day 1 to Day 84 in LDL-C for the obicetrapib 10 mg+ezetimibe 10 mg combination treatment group compared with the placebo group.
The secondary efficacy endpoints include the following, in hierarchical order: • Percent change from Day 1 to Day 84 in LDL-C for the obicetrapib 10 mg monotherapy • treatment group compared with the placebo group; • Percent change from Day 1 to Day 84 in ApoB for the obicetrapib 10 mg+ezetimibe 10 mg • combination treatment group compared with the placebo group; and • Percent change from Day 1 to Day 84 in ApoB for the obicetrapib 10 mg monotherapy treatment group compared with the placebo group.
The exploratory efficacy endpoints include the following: • Percent change from Day 1 to Day 84 in non-HDL-C, VLDL-C, HDL-C, TG, ApoE, Lp(a), and HDL-ApoE for the obicetrapib 10 mg+ezetimibe 10 mg combination treatment group compared with the placebo group and for the obicetrapib 10 mg monotherapy treatment group compared with the placebo group; and • Proportion of participants at Day 84 that achieve LDL-C<2.6 mmol/L (<100 mg/dL), LDL-C<1.8 mmol/L (<70 mg/dL), and LDL-C<1.3 mmol/L (<50 mg/dL) for the obicetrapib 10 mg+ezetimibe 10 mg combination treatment group compared with the placebo group and for the obicetrapib 10 mg monotherapy treatment group compared with the placebo group. […]

[2] = test system: critical physiological systems; details: doses up to 300 mg/kg in rats; cited from earlier work
LDL-C [3] = details: cited from earlier work
QTcF = details: TA-8995-04; cited from earlier work

T1 sequence (P08183 whole entry): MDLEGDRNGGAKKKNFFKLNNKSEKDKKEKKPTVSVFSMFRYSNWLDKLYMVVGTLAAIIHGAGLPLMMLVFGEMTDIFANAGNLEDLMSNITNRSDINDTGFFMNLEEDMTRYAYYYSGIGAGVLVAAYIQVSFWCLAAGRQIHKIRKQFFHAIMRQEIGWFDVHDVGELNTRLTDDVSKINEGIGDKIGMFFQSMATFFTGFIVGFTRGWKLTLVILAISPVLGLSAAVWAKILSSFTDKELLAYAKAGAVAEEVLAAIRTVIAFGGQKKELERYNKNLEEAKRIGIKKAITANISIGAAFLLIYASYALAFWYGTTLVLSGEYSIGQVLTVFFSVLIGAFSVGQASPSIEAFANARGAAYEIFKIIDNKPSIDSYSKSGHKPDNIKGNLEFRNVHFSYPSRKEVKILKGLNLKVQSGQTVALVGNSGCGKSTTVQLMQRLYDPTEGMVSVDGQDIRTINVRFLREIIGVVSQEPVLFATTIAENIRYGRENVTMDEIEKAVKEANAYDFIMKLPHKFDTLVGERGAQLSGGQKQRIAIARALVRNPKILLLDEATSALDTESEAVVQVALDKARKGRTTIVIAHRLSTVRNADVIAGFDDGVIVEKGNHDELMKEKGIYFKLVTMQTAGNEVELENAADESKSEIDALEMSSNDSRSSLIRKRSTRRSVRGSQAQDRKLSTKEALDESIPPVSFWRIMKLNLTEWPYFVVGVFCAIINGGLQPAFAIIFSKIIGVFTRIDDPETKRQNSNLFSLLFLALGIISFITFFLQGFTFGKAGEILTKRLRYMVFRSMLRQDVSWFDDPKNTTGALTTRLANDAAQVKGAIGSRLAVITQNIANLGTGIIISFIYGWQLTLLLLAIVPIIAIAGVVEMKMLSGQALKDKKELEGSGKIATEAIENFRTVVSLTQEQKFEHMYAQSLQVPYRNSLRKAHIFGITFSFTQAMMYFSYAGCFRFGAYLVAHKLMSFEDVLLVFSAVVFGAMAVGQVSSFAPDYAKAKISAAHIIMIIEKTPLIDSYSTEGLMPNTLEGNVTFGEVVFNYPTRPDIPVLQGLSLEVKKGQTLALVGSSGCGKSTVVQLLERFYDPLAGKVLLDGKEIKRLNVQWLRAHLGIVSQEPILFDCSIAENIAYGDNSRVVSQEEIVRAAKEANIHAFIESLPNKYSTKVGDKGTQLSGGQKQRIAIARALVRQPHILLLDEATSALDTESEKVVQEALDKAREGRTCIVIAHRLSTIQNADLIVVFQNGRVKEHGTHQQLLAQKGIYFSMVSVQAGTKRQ

CCOC(=O)N1c2ccc(C(F)(F)F)cc2[C@@H](N(Cc2cc(C(F)(F)F)cc(C(F)(F)F)c2)c2ncc(OCCCC(=O)O)cn2)C[C@H]1CC [Obicetrapib, {4-[(2-{[3,5-bis(trifluoromethyl)benzyl][(2R,4S)-1-(ethoxycarbonyl)-2-ethyl-6-(trifluoromethyl)-1,2,3,4-tetrahydroquinolin-4-yl]amino}pyrimidin-5-yl)oxy]butanoic acid}]
effect on P-glycoprotein activity (P-glycoprotein): no significant effect
HDL-C efflux capacity (HDL-C): significant increase
HDL-C increase (HDL-C): 179.0%
LDL-C Change from Baseline to Day 28, Mean (LDL-C [1]; Exploratory Population): -43.0 mg/dL
LDL-C Change from Baseline to Day 28, Median (LDL-C [1]; Exploratory Population): -45.0 mg/dL
LDL-C Change from Baseline to Day 84, Mean (LDL-C [1]; Exploratory Population): -39.9 mg/dL
LDL-C Change from Baseline to Day 84, Median (LDL-C [1]; Exploratory Population): -38.5 mg/dL
LDL-C Day 28, Mean (LDL-C [1]; Exploratory Population): 57.6 mg/dL
LDL-C Day 28, Median (LDL-C [1]; Exploratory Population): 51.5 mg/dL
LDL-C Day 84, Mean (LDL-C [1]; Exploratory Population): 60.7 mg/dL
LDL-C Day 84, Median (LDL-C [1]; Exploratory Population): 55.5 mg/dL
LDL-C Percent Change from Baseline to Day 28 (%), Mean (LDL-C [1]; Exploratory Population): −43.59%
LDL-C Percent Change from Baseline to Day 28 (%), Median (LDL-C [1]; Exploratory Population): −43.90%
LDL-C Percent Change from Baseline to Day 84 (%), Mean (LDL-C [1]; Exploratory Population): −39.35%
LDL-C Percent Change from Baseline to Day 84 (%), Median (LDL-C [1]; Exploratory Population): −43.50%
median reduction in LDL-C (LDL-C [1]; ROSE2 phase 2b (NCT05266586), obicetrapib 10 mg with or without ezetimibe 10 mg): 39%
LDL-C Change from Baseline to Day 28, Mean (LDL-C [1]; mITT Population): -33.2 mg/dL
LDL-C Change from Baseline to Day 28, Median (LDL-C [1]; mITT Population): -35.0 mg/dL
LDL-C Change from Baseline to Day 84, Mean (LDL-C [1]; mITT Population): -21.3 mg/dL
LDL-C Change from Baseline to Day 84, Median (LDL-C [1]; mITT Population): -29.5 mg/dL
LDL-C Day 28, Mean (LDL-C [1]; mITT Population): 70.3 mg/dL
LDL-C Day 28, Median (LDL-C [1]; mITT Population): 56.0 mg/dL
LDL-C Day 84, Mean (LDL-C [1]; mITT Population): 82.7 mg/dL
LDL-C Day 84, Median (LDL-C [1]; mITT Population): 65.0 mg/dL
LDL-C Percent Change from Baseline to Day 28 (%), Mean (LDL-C [1]; mITT Population): −32.21%
LDL-C Percent Change from Baseline to Day 28 (%), Median (LDL-C [1]; mITT Population): −41.70%
LDL-C Percent Change from Baseline to Day 84 (%), Mean (LDL-C [1]; mITT Population): −18.92%
LDL-C Percent Change from Baseline to Day 84 (%), Median (LDL-C [1]; mITT Population): −32.35%
adverse effect on critical physiological systems [2]: no adverse effect
LDL-C reduction (LDL-C [3]; TA-8995-03, 10 mg daily dose, mild dyslipidemia): 45.4%
additional reduction in LDL-C (LDL-C [3]; obicetrapib 10 mg on top of atorvastatin 20 mg): 50.3%
effect on the QTcF (QTcF): no effect
